Test results published in patent publication US20240199634A1, “CYCLIC COMPOUNDS AND METHODS OF USING SAME” (SCHRÖDINGER, INC., priority 2021, published 2024).

molecular target: T1, Full length human CDC7 protein co-expressed with DBF4 (Homo sapiens, UniProt O00311); experiment: CDC7 Kinase Biochemical Assay (ADP-Glo, PDKtide substrate); details: 0.1 nM CDC7/DBF4, 1 μM ATP, 10 μM PDKtide, 4 h reaction
T1 construct: Full length human CDC7 protein co-expressed with DBF4; purchased SignalChem (China)
T1 sequence (O00311 whole entry): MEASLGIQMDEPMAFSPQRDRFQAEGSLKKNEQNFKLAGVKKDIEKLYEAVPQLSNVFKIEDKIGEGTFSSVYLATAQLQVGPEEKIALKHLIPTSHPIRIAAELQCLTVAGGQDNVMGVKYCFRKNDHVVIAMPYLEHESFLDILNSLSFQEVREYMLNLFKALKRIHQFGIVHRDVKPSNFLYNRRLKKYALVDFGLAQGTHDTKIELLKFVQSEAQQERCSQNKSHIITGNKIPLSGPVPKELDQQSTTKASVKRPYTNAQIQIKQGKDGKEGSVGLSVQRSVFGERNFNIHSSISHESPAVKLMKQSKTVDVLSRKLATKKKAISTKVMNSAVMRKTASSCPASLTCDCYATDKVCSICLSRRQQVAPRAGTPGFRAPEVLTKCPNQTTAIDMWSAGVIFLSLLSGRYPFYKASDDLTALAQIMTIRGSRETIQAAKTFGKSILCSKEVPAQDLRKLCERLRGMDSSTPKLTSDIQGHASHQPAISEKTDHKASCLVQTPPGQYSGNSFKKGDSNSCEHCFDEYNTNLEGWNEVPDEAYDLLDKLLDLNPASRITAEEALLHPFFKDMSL
T1 sequence (Q9UBU7 whole entry partner): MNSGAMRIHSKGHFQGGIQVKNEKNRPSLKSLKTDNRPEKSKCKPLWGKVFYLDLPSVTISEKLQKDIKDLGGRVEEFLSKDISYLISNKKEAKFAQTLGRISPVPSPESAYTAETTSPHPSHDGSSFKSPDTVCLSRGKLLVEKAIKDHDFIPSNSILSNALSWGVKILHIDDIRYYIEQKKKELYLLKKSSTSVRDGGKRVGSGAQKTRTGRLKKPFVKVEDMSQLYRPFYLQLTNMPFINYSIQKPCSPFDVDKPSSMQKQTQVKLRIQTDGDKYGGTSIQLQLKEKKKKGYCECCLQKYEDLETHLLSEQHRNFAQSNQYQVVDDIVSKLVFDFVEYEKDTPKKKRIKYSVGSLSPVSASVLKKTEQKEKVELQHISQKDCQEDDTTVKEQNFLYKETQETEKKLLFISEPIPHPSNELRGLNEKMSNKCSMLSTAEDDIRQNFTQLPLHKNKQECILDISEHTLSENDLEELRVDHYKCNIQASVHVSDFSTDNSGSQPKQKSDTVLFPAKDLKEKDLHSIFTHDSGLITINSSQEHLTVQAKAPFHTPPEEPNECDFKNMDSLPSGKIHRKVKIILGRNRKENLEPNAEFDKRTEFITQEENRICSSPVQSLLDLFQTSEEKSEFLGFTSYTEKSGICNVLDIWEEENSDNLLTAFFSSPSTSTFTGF
Experimental: CDC7 Kinase Biochemical Assay PROTOCOL:
Full length human CDC7 protein co-expressed with DBF4 was purchased from SignalChem (China). CDC7 kinase activity was determined with PDKtide (SignalChem) as a substrate and by measuring ADP production using the ADP-Glo™ Kinase Assay kit (Promega) following the manufacturer's instructions. The kinase reaction was performed using the following conditions: Buffer: 40 mM Tris pH 7.5, 20 mM MgCl2, 0.1 mg/mL BSA and 50 μM DTT. Final reaction mix contained 0.1 nM CDC7/DBF4, 1 μM ATP and 10 μM PDKtide. The kinase reaction time was 4 h. The ADP-Glo signal was measured using an EnVision plate reader (PerkinELmer).
Percent inhibition of CDC7 kinase activity was calculated based on the following formula:
[formula] • SSample: the signal of compounds • SHigh Ctrl: the signal of high control (DMSO) • SLow Ctrl: the signal of low control (positive control CDC7 inhibitor)

Compound	IC50 [nM]
Cc1cnccc1-c1cc2c3c([nH]c(=O)c2s1)C(O)(C(C)(C)C)COC3 (single isomer, unassigned) [Compound 70]	> 10
O=c1[nH]c2c(c3cc(-c4cn[nH]c4)sc13)CCC[C@H]2N1CCC(F)(F)C1 (single isomer, unassigned) [Compound 5]	≤ 1
COC1(C)CC(F)(F)Cc2c1[nH]c(=O)c1sc(-c3cn[nH]c3)cc21 (single isomer, unassigned) [Compound 53]	≤ 1
O=c1[nH]c2c(c3cc(-c4ccncc4)sc13)C1CCC2(O)CC1 [Compound 9, 6-hydroxy-2-(pyridin-4-yl)-6,7,8,9-tetrahydro-6,9-ethanothieno[2,3-c]quinolin-4(5H)-one]	≤ 1
CC(C)(C)C1(O)COCc2c1[nH]c(=O)c1sc(-c3c[nH]nc3F)cc21 (single isomer, unassigned) [Compound 66]	≤ 1
O=c1[nH]c2c(c3cc(-c4cn[nH]c4)sc13)CC(F)(F)C[C@@H]2N1CCC1 (single isomer, unassigned) [Compound 13]	≤ 1
CC(=O)N1Cc2c([nH]c(=O)c3sc(-c4cn[nH]c4)cc23)C(O)(C(C)(C)C)C1 (centres unmarked) [Compound 94, 2-acetyl-4-tert-butyl-4-hydroxy-8-(1H-pyrazol-4-yl)-3,5-dihydro-1H-thieno[2,3-c][1,6]naphthyridin-6-one]	≤ 1

Now from value to compound:

IC50 [nM]	Compound
≤ 1	CC(C)C1(O)CCCc2c1[nH]c(=O)c1sc(-c3cn[nH]c3)cc21 (single isomer, unassigned) [Compound 87]
1 to 10	O=c1[nH]c2c(c3cc(-c4cn[nH]c4)sc13)COCC2(O)C(F)(F)F (single isomer, unassigned) [Compound 29]
1 to 10	O=c1[nH]c2c(c3cc(-c4cn[nH]c4)sc13)COCC2(O)C(F)F (single isomer, unassigned) [Compound 43]
1 to 10	CC(C)(C)[C@]1(O)COCc2c1[nH]c(=O)c1sc(-c3cn[nH]c3)cc21 (single isomer, unassigned) [Compound 21]
≤ 1	CC1(CO)OCCc2c1[nH]c(=O)c1sc(-c3cn[nH]c3)cc21 (single isomer, unassigned) [Compound 35]
≤ 1	O=c1[nH]c2c(c3cc(-c4cn[nH]c4)sc13)COCC2(O)C1CCCC1 (single isomer, unassigned) [Compound 78]
1 to 10	CC(F)(F)C1(O)COCc2c1[nH]c(=O)c1sc(-c3cn[nH]c3)cc21 (single isomer, unassigned) [Compound 95]
> 10	CCC(C)C1(O)COCc2c1[nH]c(=O)c1sc(-c3cn[nH]c3)cc21 (single isomer, unassigned) [Compound 74]
≤ 1	CNC1(C)COCc2c1[nH]c(=O)c1sc(-c3cn[nH]c3)cc21 (centres unmarked) [Compound 84, 4-methyl-4-(methylamino)-8-(1H-pyrazol-4-yl)-1,3,4,5-tetrahydro-6H-pyrano[4,3-b]thieno[3,2-d]pyridin-6-one]
> 10	CC(C)C1(O)COCc2c1[nH]c(=O)c1sc(-c3ccncc3)cc21 (single isomer, unassigned) [Compound 45]
